Data published in ChEMBL document CHEMBL4364276, “Discovery of 4-phenyl-2H-benzo[b][1,4]oxazin-3(4H)-one derivatives as potent and orally active PI3K/mTOR dual inhibitors” (Eur J Med Chem, 2019).

Experiments:
[1] = system: HeLa; assay: Inhibition of colony formation in human HeLa cells at > 5 uM incubated for 2 weeks crystal violet staining based assay; format: functional
[2] = AUC (0 to infinity) in Sprague-Dawley rat at 10 mg/kg, po measured upto 24 hrs by LC-MS/MS analysis; format: ADME, organism-based; design: dose 10 mg/kg, time infinity, route oral; settings: in vivo
[3] = target: Activin receptor type-1 (Homo sapiens) (UniProt Q04771); assay: Inhibition of human ALK2 at 100 nM using casein as substrate by [gamma-33P]-ATP assay
[4] = target: Activin receptor type-1B (Homo sapiens) (UniProt P36896); assay: Inhibition of human ALK4 at 100 nM using casein as substrate by [gamma-33P]-ATP assay
[5] = target: Casein kinase I isoform delta (Homo sapiens) (UniProt P48730); assay: Inhibition of human CK1D at 100 nM using KRRRAL[pS]VASLPGL as substrate by [gamma-33P]-ATP assay
[6] = target: Dual specificity protein kinase CLK3 (Homo sapiens) (UniProt P49761); assay: Inhibition of human CLK3 at 100 nM using MBP as substrate by [gamma-33P]-ATP assay
[7] = target: Myotonin-protein kinase (Homo sapiens) (UniProt Q09013); assay: Inhibition of human DMPK at 100 nM using KKRNRRLSVA as substrate by [gamma-33P]-ATP assay
[8] = target: Dual specificity tyrosine-phosphorylation-regulated kinase 3 (Homo sapiens) (UniProt O43781); assay: Inhibition of human DYRK3 at 100 nM using RRRFRPASPLRGPPK as substrate by [gamma-33P]-ATP assay
[9] = target: Epidermal growth factor receptor (Homo sapiens) (UniProt P00533); assay: Inhibition of human EGFR at 100 nM using poly[Glu:Tyr] (4:1) as substrate by [gamma-33P]-ATP assay
[10] = target: Ephrin type-A receptor 3 (Homo sapiens) (UniProt P29320); assay: Inhibition of human EPHA3 at 100 nM using poly[Glu:Tyr] (4:1) as substrate by [gamma-33P]-ATP assay
[11] = target: Mitogen-activated protein kinase 3 (Homo sapiens) (UniProt P27361); assay: Inhibition of human ERK1 at 100 nM using MBP as substrate by [gamma-33P]-ATP assay
[12] = target: Mitogen-activated protein kinase 15 (Homo sapiens) (UniProt Q8TD08); assay: Inhibition of human ERK7 at 100 nM using MBP as substrate by [gamma-33P]-ATP assay
[13] = target: Tyrosine-protein kinase Fyn (Homo sapiens) (UniProt P06241); assay: Inhibition of human FYN at 100 nM using poly[Glu:Tyr] (4:1) as substrate by [gamma-33P]-ATP assay
[14] = target: G protein-coupled receptor kinase 3 (Homo sapiens) (UniProt P35626); assay: Inhibition of human GRK3 at 100 nM using casein as substrate by [gamma-33P]-ATP assay
[15] = target: Tyrosine-protein kinase Lck (Homo sapiens) (UniProt P06239); assay: Inhibition of human LCK at 100 nM using poly[Glu:Tyr] (4:1) as substrate by [gamma-33P]-ATP assay
[16] = target: MAP/microtubule affinity-regulating kinase 3 (Homo sapiens) (UniProt P27448); assay: Inhibition of human MARK3 at 100 nM using KKKVSRSGLYRSPSMPENLNRPR as substrate by [gamma-33P]-ATP assay
[17] = target: Dual specificity mitogen-activated protein kinase kinase 5 (Homo sapiens) (UniProt Q13163); assay: Inhibition of human MEK5 at 100 nM using ERK5 as substrate by [gamma-33P]-ATP assay
[18] = target: Mitogen-activated protein kinase kinase kinase 9 (Homo sapiens) (UniProt P80192); assay: Inhibition of human MLK1 at 100 nM using casein as substrate by [gamma-33P]-ATP assay
[19] = target: Serine/threonine-protein kinase Nek11 (Homo sapiens) (UniProt Q8NG66); assay: Inhibition of human NEK11 at 100 nM using MBP as substrate by [gamma-33P]-ATP assay
[20] = target: Serine/threonine-protein kinase Nek7 (Homo sapiens) (UniProt Q8TDX7); assay: Inhibition of human NEK7 at 100 nM using casein as substrate by [gamma-33P]-ATP assay
[21] = target: Serine/threonine-protein kinase PAK 2 (Homo sapiens) (UniProt Q13177); assay: Inhibition of human PAK2 at 100 nM using RRRLSFAEPG as substrate by [gamma-33P]-ATP assay
[22] = target: Protein kinase C delta type (Homo sapiens) (UniProt Q05655); assay: Inhibition of human PKCdelta at 100 nM using ERMRPRKRQGSVRRRV as substrate by [gamma-33P]-ATP assay
[23] = target: Protein kinase C zeta type (Homo sapiens) (UniProt Q05513); assay: Inhibition of human PKCzeta at 100 nM using ERMRPRKRQGSVRRRV as substrate by [gamma-33P]-ATP assay
[24] = target: Serine/threonine-protein kinase N3 (Homo sapiens) (UniProt Q6P5Z2); assay: Inhibition of human PKN3 at 100 nM using KKLNRTLSVA as substrate by [gamma-33P]-ATP assay
[25] = target: Serine/threonine-protein kinase PLK2 (Homo sapiens) (UniProt Q9NYY3); assay: Inhibition of human PLK2 at 100 nM using casein as substrate by [gamma-33P]-ATP assay
[26] = target: SNF-related serine/threonine-protein kinase (Homo sapiens) (UniProt Q9NRH2); assay: Inhibition of human SNRK at 100 nM using MBP as substrate by [gamma-33P]-ATP assay
[27] = target: Angiopoietin-1 receptor (Homo sapiens) (UniProt Q02763); assay: Inhibition of human TIE2 at 100 nM using poly[Glu:Tyr] (4:1) as substrate by [gamma-33P]-ATP assay
[28] = target: Serine/threonine-protein kinase tousled-like 1 (Homo sapiens) (UniProt Q9UKI8); assay: Inhibition of human TLK1 at 100 nM using Histone H3 as substrate by [gamma-33P]-ATP assay
[29] = target: Non-receptor tyrosine-protein kinase TNK1 (Homo sapiens) (UniProt Q13470); assay: Inhibition of human TNK1 at 100 nM using poly[Glu:Tyr] (4:1) as substrate by [gamma-33P]-ATP assay
[30] = target: Serine/threonine-protein kinase ULK3 (Homo sapiens) (UniProt Q6PHR2); assay: Inhibition of human ULK3 at 100 nM using MBP as substrate by [gamma-33P]-ATP assay
[31] = target: Tyrosine-protein kinase ZAP-70 (Homo sapiens) (UniProt P43403); assay: Inhibition of human ZAP70 at 100 nM using poly[Glu:Tyr] (4:1) as substrate by [gamma-33P]-ATP assay
[32] = species: Homo sapiens; assay: Inhibition of human AMPK (A1/B1/G2) at 100 nM using HMRSAMSGLHLVKRR as substrate by [gamma-33P]-ATP assay

Epidermal growth factor receptor (Homo sapiens), sequence (P00533 whole entry): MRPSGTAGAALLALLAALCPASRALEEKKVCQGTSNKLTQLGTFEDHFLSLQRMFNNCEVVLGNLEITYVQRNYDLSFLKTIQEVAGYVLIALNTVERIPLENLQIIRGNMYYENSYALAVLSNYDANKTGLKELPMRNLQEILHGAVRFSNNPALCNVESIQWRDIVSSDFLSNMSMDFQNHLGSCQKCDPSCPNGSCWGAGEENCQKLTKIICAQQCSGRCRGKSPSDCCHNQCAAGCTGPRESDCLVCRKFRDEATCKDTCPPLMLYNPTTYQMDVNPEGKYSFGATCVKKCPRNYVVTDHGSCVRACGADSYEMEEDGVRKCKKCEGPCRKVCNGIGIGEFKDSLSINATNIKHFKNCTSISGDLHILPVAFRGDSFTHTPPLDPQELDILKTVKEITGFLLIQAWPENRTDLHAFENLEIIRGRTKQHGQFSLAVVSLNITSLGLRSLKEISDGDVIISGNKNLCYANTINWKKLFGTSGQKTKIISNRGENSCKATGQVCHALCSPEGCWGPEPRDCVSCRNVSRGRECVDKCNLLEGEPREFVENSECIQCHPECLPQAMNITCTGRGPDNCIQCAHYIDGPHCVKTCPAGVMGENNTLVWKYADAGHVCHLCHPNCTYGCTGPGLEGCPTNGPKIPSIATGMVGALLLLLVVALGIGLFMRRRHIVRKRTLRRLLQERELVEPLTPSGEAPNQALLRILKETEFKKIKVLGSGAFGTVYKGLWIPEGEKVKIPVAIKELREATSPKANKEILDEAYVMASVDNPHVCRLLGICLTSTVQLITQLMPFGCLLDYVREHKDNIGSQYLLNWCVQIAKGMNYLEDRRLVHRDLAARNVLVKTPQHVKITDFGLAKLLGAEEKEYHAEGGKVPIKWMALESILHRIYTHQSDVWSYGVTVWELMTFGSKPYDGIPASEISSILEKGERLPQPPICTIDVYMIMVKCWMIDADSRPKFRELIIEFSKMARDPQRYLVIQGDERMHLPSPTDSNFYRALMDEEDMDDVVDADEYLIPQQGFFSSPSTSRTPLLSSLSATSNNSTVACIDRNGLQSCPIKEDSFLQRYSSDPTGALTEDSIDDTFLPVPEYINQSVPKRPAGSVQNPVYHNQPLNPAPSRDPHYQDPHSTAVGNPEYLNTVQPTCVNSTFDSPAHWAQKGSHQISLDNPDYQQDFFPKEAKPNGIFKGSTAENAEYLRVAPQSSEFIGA
Angiopoietin-1 receptor (Homo sapiens), sequence (Q02763 whole entry): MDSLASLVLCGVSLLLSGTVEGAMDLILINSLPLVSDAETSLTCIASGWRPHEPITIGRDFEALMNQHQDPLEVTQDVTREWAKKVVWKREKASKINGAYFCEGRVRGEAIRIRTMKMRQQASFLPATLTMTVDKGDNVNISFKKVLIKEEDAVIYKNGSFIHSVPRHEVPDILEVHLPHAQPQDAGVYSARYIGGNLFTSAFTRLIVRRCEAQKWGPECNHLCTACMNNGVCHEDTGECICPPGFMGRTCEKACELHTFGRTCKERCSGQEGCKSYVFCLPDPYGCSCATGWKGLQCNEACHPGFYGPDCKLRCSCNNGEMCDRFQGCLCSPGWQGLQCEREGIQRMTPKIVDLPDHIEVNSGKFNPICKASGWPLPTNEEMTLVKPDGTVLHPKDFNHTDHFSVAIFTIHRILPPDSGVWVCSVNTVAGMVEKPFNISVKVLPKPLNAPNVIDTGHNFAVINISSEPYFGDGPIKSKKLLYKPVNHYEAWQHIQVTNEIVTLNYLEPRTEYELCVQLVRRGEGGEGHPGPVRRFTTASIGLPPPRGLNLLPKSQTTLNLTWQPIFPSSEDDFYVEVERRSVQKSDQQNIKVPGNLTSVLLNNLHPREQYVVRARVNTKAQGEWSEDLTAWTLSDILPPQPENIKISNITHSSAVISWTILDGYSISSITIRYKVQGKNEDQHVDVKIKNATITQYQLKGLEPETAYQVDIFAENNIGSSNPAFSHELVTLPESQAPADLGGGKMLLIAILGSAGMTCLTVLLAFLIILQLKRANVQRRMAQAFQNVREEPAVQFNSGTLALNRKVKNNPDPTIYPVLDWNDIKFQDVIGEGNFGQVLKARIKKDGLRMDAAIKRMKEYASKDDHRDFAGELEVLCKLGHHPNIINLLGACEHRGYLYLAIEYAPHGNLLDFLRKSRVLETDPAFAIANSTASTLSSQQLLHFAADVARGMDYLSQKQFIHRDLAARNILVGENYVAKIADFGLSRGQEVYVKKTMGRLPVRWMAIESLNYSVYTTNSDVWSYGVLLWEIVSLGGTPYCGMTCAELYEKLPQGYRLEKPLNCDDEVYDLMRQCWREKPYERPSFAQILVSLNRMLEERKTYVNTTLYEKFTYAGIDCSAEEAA
Tyrosine-protein kinase Lck (Homo sapiens), sequence (P06239 2-509 limits assumed): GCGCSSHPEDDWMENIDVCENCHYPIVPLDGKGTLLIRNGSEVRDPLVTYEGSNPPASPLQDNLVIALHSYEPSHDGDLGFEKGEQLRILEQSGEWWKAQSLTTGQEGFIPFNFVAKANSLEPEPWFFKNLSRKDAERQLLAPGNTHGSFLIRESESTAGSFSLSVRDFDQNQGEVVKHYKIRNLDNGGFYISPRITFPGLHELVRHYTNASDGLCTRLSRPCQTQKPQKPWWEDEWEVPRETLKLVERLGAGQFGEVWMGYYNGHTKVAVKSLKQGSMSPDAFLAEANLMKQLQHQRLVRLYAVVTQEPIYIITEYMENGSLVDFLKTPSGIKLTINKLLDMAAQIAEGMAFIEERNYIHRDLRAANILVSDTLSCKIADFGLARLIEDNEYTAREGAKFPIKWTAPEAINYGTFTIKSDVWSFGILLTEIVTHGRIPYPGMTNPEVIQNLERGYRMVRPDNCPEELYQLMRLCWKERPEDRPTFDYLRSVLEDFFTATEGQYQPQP
Casein kinase I isoform delta (Homo sapiens), sequence (P48730 whole entry, looked up, canonical isoform): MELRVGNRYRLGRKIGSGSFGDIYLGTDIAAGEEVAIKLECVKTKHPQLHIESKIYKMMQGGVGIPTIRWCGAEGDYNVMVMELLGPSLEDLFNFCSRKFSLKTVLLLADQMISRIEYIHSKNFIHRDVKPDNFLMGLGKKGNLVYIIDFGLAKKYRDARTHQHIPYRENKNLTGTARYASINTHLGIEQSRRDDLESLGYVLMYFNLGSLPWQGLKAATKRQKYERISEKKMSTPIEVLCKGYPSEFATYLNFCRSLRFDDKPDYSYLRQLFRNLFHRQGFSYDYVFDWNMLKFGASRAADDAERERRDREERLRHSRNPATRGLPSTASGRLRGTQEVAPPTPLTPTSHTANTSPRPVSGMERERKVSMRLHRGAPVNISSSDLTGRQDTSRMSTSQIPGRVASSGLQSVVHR
Mitogen-activated protein kinase 3 (Homo sapiens), sequence (P27361 whole entry): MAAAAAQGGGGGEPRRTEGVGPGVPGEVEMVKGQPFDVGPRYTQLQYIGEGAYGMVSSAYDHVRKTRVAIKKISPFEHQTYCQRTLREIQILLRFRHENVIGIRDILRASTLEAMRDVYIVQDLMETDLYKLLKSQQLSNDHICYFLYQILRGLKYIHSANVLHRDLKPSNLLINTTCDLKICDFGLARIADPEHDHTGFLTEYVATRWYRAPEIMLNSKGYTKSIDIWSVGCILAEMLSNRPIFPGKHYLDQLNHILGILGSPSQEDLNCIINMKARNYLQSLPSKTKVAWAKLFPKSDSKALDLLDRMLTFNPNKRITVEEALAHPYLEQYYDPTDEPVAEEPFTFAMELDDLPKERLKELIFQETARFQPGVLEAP
Dual specificity protein kinase CLK3 (Homo sapiens), sequence (P49761 whole entry, looked up): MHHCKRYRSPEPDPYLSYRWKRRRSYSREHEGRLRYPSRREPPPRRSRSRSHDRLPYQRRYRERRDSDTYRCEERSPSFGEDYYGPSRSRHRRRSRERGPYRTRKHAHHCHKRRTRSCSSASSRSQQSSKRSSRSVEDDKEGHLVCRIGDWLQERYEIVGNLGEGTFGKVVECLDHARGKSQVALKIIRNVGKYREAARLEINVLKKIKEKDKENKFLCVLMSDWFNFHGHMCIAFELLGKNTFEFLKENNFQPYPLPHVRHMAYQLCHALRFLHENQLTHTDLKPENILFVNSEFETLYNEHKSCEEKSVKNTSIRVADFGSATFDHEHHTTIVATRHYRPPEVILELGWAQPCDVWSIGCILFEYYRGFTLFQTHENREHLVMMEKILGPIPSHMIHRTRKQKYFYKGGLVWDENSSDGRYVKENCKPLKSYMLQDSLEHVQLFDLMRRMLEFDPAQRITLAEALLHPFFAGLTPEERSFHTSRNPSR
Myotonin-protein kinase (Homo sapiens), sequence (Q09013 whole entry): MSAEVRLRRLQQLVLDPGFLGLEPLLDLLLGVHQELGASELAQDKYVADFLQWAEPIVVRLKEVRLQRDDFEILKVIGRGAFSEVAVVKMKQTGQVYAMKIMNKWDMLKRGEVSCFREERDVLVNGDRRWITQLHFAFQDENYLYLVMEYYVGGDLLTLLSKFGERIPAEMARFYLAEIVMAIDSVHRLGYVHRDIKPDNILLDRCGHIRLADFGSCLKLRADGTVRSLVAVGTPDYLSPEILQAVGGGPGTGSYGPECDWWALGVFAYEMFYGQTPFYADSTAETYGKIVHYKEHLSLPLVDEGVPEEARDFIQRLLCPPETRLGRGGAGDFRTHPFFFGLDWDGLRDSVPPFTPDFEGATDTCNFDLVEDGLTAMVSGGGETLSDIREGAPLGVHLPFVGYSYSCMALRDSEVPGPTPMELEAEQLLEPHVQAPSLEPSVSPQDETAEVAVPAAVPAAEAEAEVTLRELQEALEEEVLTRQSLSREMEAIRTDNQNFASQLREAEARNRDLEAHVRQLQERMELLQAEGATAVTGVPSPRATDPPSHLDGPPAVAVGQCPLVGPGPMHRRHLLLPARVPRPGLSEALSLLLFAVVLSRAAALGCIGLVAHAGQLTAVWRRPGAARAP

## COc1ccc(N2C(=O)COc3ccc(-c4cnc(OC)c(NS(=O)(=O)c5ccc(F)cc5)c4)cc32)cc1
[1]
  inhibition (INH): <=100%
[2]
  AUC(0-inf): 4750 ng·h/mL
[3]
  inhibition: 12.7%
[4]
  inhibition: -0.05%
[5]
  inhibition: 2.83%
[6]
  inhibition: 7.47%
[7]
  inhibition: -4.58%
[8]
  inhibition: -8.14%
[9]
  inhibition: 8.4%
[10]
  inhibition: 20.6%
[11]
  inhibition: 12.7%
[12]
  inhibition: -4.54%
[13]
  inhibition: -0.86%
[14]
  inhibition: -4.85%
[15]
  inhibition: 16%
[16]
  inhibition: -2.27%
[17]
  inhibition: -3.16%
[18]
  inhibition: 0.68%
[19]
  inhibition: 17.5%
[20]
  inhibition: 4.12%
[21]
  inhibition: 10.4%
[22]
  inhibition: 2.24%
[23]
  inhibition: 8.59%
[24]
  inhibition: -1.97%
[25]
  inhibition: 4.64%
[26]
  inhibition: 17.7%
[27]
  inhibition: 8.06%
[28]
  inhibition: 2.5%
[29]
  inhibition: 10.7%
[30]
  inhibition: 5.64%
[31]
  inhibition: -9.69%
[32]
  inhibition: -8.22%
